Laboratory results taken from patent US20060189576A1, “Substituted vitamin d analogues and their therapeutic uses” (priority 2003, published 2006).

How the values were obtained:
MCF-7 cells = experiment: MCF-7 cell proliferation ([3H]thymidine incorporation); format: cell-based; conditions: for antiproliferative effect (in words): MCF-7 cells; for IN VITRO STUDIES MCF-7: antiproliferative action, percentage activity vs 1α,25(OH)2D3 (=100%)
Description: To evaluate the effect of on cell proliferation, malignant MCF-7 cells were cultured in DMEM/nut. mix. […] Cultures were maintained at 37° C. in a humidified atmosphere of 5% CO2 in air. MCF-7 cells were seeded at 5×10^3 cells/well in the above described medium in 96-well microtiter plates in a final volume of 0.2 ml per well. Triplicate cultures were performed. […] Then, 1 μCi [^3H]thymidine was added to each well and cells were harvested after 4 h incubation with a Packard harvester and measured by the Packard Topcount System (Packard, Meriden, USA).

HL-60 cells = experiment: HL-60 cell differentiation (NBT reduction assay); format: cell-based; conditions: for prodifferentiating effect (in words): HL 60 cells; for IN VITRO STUDIES HL 60: potency to differentiate HL 60 cells, percentage activity vs 1α,25(OH)2D3 (=100%)
Description: To evaluate the effect on cell differentiation HL-60 cells were seeded at 4×10^4 cells/ml in 25 cm^2 Falcon tissue chambers using RPMI 1640 medium supplemented with 20% FCS and gentamycin (50 μg/ml) in a final volume of 5 ml. Cultures were maintained at 37° C. in a humidified atmosphere of 5% CO2 in air. […] After 4 days of culture, the dishes were shaken to lose adherent cells. Cells were washed twice in RPMI, counted and assayed for differentiation markers (NBT reduction assay). Superoxide production was measured as NBT reducing activity as described previously (Ostrem V. K et al. Proc Natl Acad Sci USA 84: 2610-2614, 1987). HL-60 cells at 1×10^6/ml were mixed with an equal volume of freshly prepared solution of phorbol 12-myristate 13-acetate (200 ng/ml) and […] and incubated for 30 min at 37° C. The percentage of cells containing black formazan deposits was determined using a hemacytometer.

hDBP = biological target: T1, hDBP (Homo sapiens, UniProt P02774); experiment: Affinity for human DBP: competition with [3H]1α,25(OH)2D3; format: binding; conditions: percentage activity (at 50% of the dose response) in comparison with 1α,25(OH)2D3 (=100%)
T1 sequence (P02774 17-474): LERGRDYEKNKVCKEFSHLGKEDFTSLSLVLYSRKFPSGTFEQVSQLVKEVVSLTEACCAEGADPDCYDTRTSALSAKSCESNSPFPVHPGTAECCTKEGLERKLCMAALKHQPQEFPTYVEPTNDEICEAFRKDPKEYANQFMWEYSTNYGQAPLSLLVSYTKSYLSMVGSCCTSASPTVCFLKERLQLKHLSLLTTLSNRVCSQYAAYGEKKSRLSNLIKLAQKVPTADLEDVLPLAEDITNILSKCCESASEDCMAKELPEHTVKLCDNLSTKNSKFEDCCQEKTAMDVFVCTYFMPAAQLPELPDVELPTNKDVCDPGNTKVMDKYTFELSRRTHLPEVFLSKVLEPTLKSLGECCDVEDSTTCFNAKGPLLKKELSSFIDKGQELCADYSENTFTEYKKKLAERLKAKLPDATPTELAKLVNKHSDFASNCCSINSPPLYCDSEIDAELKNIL
Description: Phase separation was then obtained by the addition of 0.5 ml of cold dextran-coated charcoal.

[1] = for IN VIVO STUDIES Osteocalcin serum: mice, daily intraperitoneal injection 7 consecutive days, percentage activity vs 1α,25(OH)2D3 (=100%); for IN VIVO STUDIES Calcium serum / IN VIVO STUDIES Calcium urine: ip
Description: Eight weeks old, male NMRI mice were obtained from the Proefdierencentrum of Leuven (Belgium) and fed a vitamin D-replete diet (0.2% calcium, 1% phosphate, 2000 U vitamin D/kg; Hope Farms, Woerden, The Netherlands). […] The control group was injected with vehicle (arachis oil). The average weight of each group of 6 mice was determined at the beginning and at the end of the experiment. The following parameters were evaluated: serum calcium, serum osteocalcin, femur calcium and urinary calcium. Serum and urinary calcium were measured by a microcolorimetric assay (Sigma, St. Louis, Mo.). Femurs were removed and femur calcium content was measured in HCl-dissolved bone ash (obtained by heating for 24 h in an oven at 100° C.), using the same technique as for serum and urinary calcium.

vitamin D receptor = biological target: T2, vitamin D receptor (Sus scrofa, UniProt A3RGC1); conditions: percentage activity (at 50% of the dose response) in comparison with 1α,25(OH)2D3 (=100%)
T2 sequence (A3RGC1 1-427): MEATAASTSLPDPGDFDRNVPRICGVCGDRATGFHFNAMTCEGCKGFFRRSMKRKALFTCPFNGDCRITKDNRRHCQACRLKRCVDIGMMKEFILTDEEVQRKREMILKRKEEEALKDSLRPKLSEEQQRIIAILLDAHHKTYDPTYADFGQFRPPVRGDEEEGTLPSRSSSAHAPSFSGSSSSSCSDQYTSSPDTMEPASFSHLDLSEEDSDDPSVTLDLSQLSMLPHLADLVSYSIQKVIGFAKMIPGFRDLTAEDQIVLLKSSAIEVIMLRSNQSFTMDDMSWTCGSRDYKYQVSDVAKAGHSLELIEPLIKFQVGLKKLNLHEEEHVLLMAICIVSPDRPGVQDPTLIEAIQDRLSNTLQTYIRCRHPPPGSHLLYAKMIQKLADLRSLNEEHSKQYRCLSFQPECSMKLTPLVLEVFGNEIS
Description: The incubation was performed at 4° C. for 20 h and phase separation was obtained by addition of dextran-coated charcoal.

Which results are given for `CC(CCCC(C)(C)O)C1CCC2C(=CC=C3CC(O)C(C)C(O)C3)CCCC21C` (stereo not drawn) [Compound 106, 14-epi-2α-methyl-19-nor-1α,25-dihydroxyvitamin D3]?
antiproliferative effect (in words) (MCF-7 cells): very potent; IN VITRO STUDIES MCF-7 (MCF-7 cells): 900%; prodifferentiating effect (in words) (HL-60 cells): very potent; IN VITRO STUDIES HL 60 (HL-60 cells): 600%; AFFINITY STUDIES DBP (hDBP): 9%; IN VIVO STUDIES Osteocalcin serum [1]: 13%; IN VIVO STUDIES Calcium serum ([1]; mouse, in vivo): 13%; IN VIVO STUDIES Calcium urine ([1]; mouse, in vivo): 6%; AFFINITY STUDIES VDR (vitamin D receptor): 90%

With `CC(CC#CC(C)(C)O)C1CCC2C(=CC=C3CC(O)C(C)C(O)C3)CCCC21C` (stereo not drawn) [Compound 107, 14-epi-2β-methyl-19-nor-23-yn-1α,25-dihydroxyvitamin D3] as the molecule, how does the “IN VITRO STUDIES MCF-7” value (MCF-7 cells) read?
The value was 350%.

What about the “IN VITRO STUDIES HL 60” value (HL-60 cells) of the same molecule?
The value was 400%.

What about the “AFFINITY STUDIES DBP” value (hDBP) of the same molecule?
Its value is 0%.

What about the “IN VIVO STUDIES Osteocalcin serum” value [1] of the same molecule?
Its value is 0.8%.

And the “IN VIVO STUDIES Calcium serum” value ([1]; mouse, in vivo)?
The value was 0.4%.

What about the “IN VIVO STUDIES Calcium urine” value ([1]; mouse, in vivo) of the same molecule?
Its value is 1.6%.

And the “AFFINITY STUDIES VDR” value (vitamin D receptor)?
The value was 10%.

Which “antiproliferative effect (in words)” value (MCF-7 cells) does the source give for `CCC1C(O)CC(=CC=C2CCCC3(C)C2CCC3C(C)CCCC(C)(C)O)CC1O` (stereo not drawn) [Compound 109, 2β-ethyl-19-nor-1α,25(OH)2D3] here?
The value was “less active than 1α,25(OH)2D3”.

What about the “IN VITRO STUDIES MCF-7” value (MCF-7 cells) of the same molecule?
The value was 90%.

What about the “prodifferentiating effect (in words)” value (HL-60 cells) of the same molecule?
Its value is “less active than 1α,25(OH)2D3”.

What about the “IN VITRO STUDIES HL 60” value (HL-60 cells) of the same molecule?
Its value is 10%.

And the “AFFINITY STUDIES DBP” value (hDBP)?
The value was 9%.

And the “IN VIVO STUDIES Osteocalcin serum” value [1]?
The value was 0.8%.

And the “further reduction of calcemic activity by the 2β counterpart” value ([1]; mouse, in vivo)?
Its value is 16 fold.

And the “IN VIVO STUDIES Calcium serum” value ([1]; mouse, in vivo)?
Its value is 0.4%.

What about the “IN VIVO STUDIES Calcium urine” value ([1]; mouse, in vivo) of the same molecule?
The value was 0.8%.

What about the “AFFINITY STUDIES VDR” value (vitamin D receptor) of the same molecule?
The value was 40%.

What does the source list for `CCC1C(O)CC(=CC=C2CCCC3(C)C2CCC3C(C)CCCC(C)(C)O)CC1O` (stereo not drawn) [Compound 110, 2α-ethyl-19-nor-1α,25(OH)2D3]?
antiproliferative effect (in words) (MCF-7 cells): very potent; IN VITRO STUDIES MCF-7 (MCF-7 cells): 650%; times more potent than 1α,25(OH)2D3 in vitro (MCF-7 cells; range over HL 60 differentiation and MCF-7 proliferation, test not specified): 2 to 6 times; prodifferentiating effect (in words) (HL-60 cells): very potent; IN VITRO STUDIES HL 60 (HL-60 cells): 200%; AFFINITY STUDIES DBP (hDBP): 20%; IN VIVO STUDIES Osteocalcin serum [1]: 13%; IN VIVO STUDIES Calcium serum ([1]; mouse, in vivo): 13%; IN VIVO STUDIES Calcium urine ([1]; mouse, in vivo): 13%; AFFINITY STUDIES VDR (vitamin D receptor): 90%

Which “prodifferentiating effect (in words)” value (HL-60 cells) does the source give for `CC(CC#CC(C)(C)O)C1CCC2C(=CC=C3CC(O)C(C)C(O)C3)CCCC21C` (stereo not drawn) [Compound 118, 1,14-bis-epi-2β-methyl-19-nor-23-yn-1α,25-dihydroxyvitamin-D3] here?
The value was “not active at all”.

And the “IN VITRO STUDIES HL 60” value (HL-60 cells)?
The value was 0%.

And the “AFFINITY STUDIES DBP” value (hDBP)?
The value was 3%.

And the “IN VIVO STUDIES Calcium serum” value ([1]; mouse, in vivo)?
The value was under 0.25%.

What about the “IN VIVO STUDIES Calcium urine” value ([1]; mouse, in vivo) of the same molecule?
The value was under 0.25%.

And the “AFFINITY STUDIES VDR” value (vitamin D receptor)?
Its value is 6%.

For `CC(CC#CC(C)(C)O)C1CCC2C(=CC=C3CC(O)C(C)C(O)C3)CCCC21C` (stereo not shown) [Compound 141], which “antiproliferative effect (in words)” value (MCF-7 cells) is on record?
The value was “very potent”.

And the “IN VITRO STUDIES MCF-7” value (MCF-7 cells)?
Its value is 4500%.

What about the “prodifferentiating effect (in words)” value (HL-60 cells) of the same molecule?
The value was “very potent”.

What about the “IN VITRO STUDIES HL 60” value (HL-60 cells) of the same molecule?
The value was 1500%.

And the “AFFINITY STUDIES VDR” value (vitamin D receptor)?
Its value is 9%.

Which “antiproliferative effect (in words)” value (MCF-7 cells) does the source give for `CCC1C(O)CC(=CC=C2CCCC3(C)C2CCC3C(C)CC#CC(C)(C)O)CC1O` (stereo not shown) [Compound 142] here?
Its value is “very potent”.

And the “IN VITRO STUDIES MCF-7” value (MCF-7 cells)?
Its value is 1500%.

What about the “prodifferentiating effect (in words)” value (HL-60 cells) of the same molecule?
The value was “very potent”.

And the “IN VITRO STUDIES HL 60” value (HL-60 cells)?
Its value is 400%.

And the “AFFINITY STUDIES VDR” value (vitamin D receptor)?
The value was 10%.
